Data taken from the supplement of paper PMC10307832.

Columns and labels:
Assay in all cases: relative viability (nuclei count vs DMSO), 5 days (fraction); higher = more cells survive
Afatinib + Pictilisib = compound: CN(C)C/C=C/C(=O)Nc1cc2c(Nc3ccc(F)c(Cl)c3)ncnc2cc1O[C@H]1CCOC1 [Afatinib] + CS(=O)(=O)N1CCN(Cc2cc3nc(-c4cccc5[nH]ncc45)nc(N4CCOCC4)c3s2)CC1 [Pictilisib] (partner 1 µM)
Procedure, shortened: (§1)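 Lung cancer cell lines in 1536-well plates got either a single drug or a fixed anchor-drug dose together with five library-drug doses (not always all listed) in √10 steps, by pin tool, on the day after seeding. Nuclei were counted after 5 days, and relative viability is the treated-to-vehicle ratio of nuclei counts. Values are medians of duplicate plates.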

Afatinib + Phenformin = compound: CN(C)C/C=C/C(=O)Nc1cc2c(Nc3ccc(F)c(Cl)c3)ncnc2cc1O[C@H]1CCOC1 [Afatinib] + N=C(N)NC(=N)NCCc1ccccc1 [Phenformin] (partner 250 µM)
Procedure, shortened: as §1

Afatinib + Palbociclib = compound: CN(C)C/C=C/C(=O)Nc1cc2c(Nc3ccc(F)c(Cl)c3)ncnc2cc1O[C@H]1CCOC1 [Afatinib] + CC(=O)c1c(C)c2cnc(Nc3ccc(N4CCNCC4)cn3)nc2n(C2CCCC2)c1=O [Palbociclib] (partner 0.5 µM)
Procedure, shortened: as §1

Afatinib + Decitabine = compound: CN(C)C/C=C/C(=O)Nc1cc2c(Nc3ccc(F)c(Cl)c3)ncnc2cc1O[C@H]1CCOC1 [Afatinib] + Nc1ncn([C@H]2C[C@H](O)[C@@H](CO)O2)c(=O)n1 [Decitabine] (partner 2 µM)
Procedure, shortened: as §1

Row | Cell Line | relative viability (Afatinib + Pictilisib; first compound 0.005 µM) | relative viability (Afatinib + Pictilisib; first compound 0.01581 µM) | relative viability (Afatinib + Pictilisib; first compound 0.05 µM) | relative viability (Afatinib + Pictilisib; first compound 0.1581 µM) | relative viability (Afatinib + Pictilisib; first compound 0.5 µM) | relative viability (Afatinib + Phenformin; first compound 0.005 µM) | relative viability (Afatinib + Phenformin; first compound 0.01581 µM) | relative viability (Afatinib + Phenformin; first compound 0.05 µM) | relative viability (Afatinib + Phenformin; first compound 0.1581 µM) | relative viability (Afatinib + Phenformin; first compound 0.5 µM) | relative viability (Afatinib + Palbociclib; first compound 0.005 µM) | relative viability (Afatinib + Palbociclib; first compound 0.01581 µM) | relative viability (Afatinib + Palbociclib; first compound 0.05 µM) | relative viability (Afatinib + Palbociclib; first compound 0.1581 µM) | relative viability (Afatinib + Palbociclib; first compound 0.5 µM) | relative viability (Afatinib + Decitabine; first compound 0.005 µM) | relative viability (Afatinib + Decitabine; first compound 0.01581 µM) | relative viability (Afatinib + Decitabine; first compound 0.05 µM) | relative viability (Afatinib + Decitabine; first compound 0.1581 µM) | relative viability (Afatinib + Decitabine; first compound 0.5 µM)
1 | H3255 | 0.173 | 0.118 | 0.132 | 0.11 | 0.104 | 0.228 | 0.23 | 0.203 | 0.202 | 0.228 | 0.267 | 0.269 | 0.289 | 0.26 | 0.258 | 0.256 | 0.167 | 0.179 | 0.189 | 0.172
2 | EPLC-272H | 0.342 | 0.301 | 0.297 | 0.324 | 0.348 | 0.35 | 0.272 | 0.231 | 0.24 | 0.264 | 0.31 | 0.294 | 0.283 | 0.284 | 0.292 | 0.355 | 0.328 | 0.359 | 0.309 | 0.348
3 | PC-3 [JPC-3] | 0.429 | 0.323 | 0.339 | 0.3 | 0.355 | 0.338 | 0.338 | 0.258 | 0.285 | 0.306 | 0.484 | 0.444 | 0.441 | 0.362 | 0.397 | 0.564 | 0.52 | 0.553 | 0.449 | 0.492
4 | NCI-H1793 | 0.36 | 0.23 | 0.362 | 0.39 | 0.31 | 0.244 | 0.316 | 0.325 | 0.273 | 0.321 | 0.258 | 0.3 | 0.273 | 0.218 | 0.21 | 0.43 | 0.344 | 0.329 | 0.27 | 0.417
5 | EKVX | 0.391 | 0.346 | 0.203 | 0.118 | 0.104 | 0.218 | 0.222 | 0.215 | 0.129 | 0.197 | 0.317 | 0.265 | 0.188 | 0.147 | 0.141 | 0.248 | 0.208 | 0.218 | 0.159 | 0.171
6 | ChaGo-K-1 | 0.893 | 0.45 | 0.757 | 0.583 | 0.88 | 0.474 | 0.466 | 0.444 | 0.45 | 0.431 | 0.932 | 0.977 | 0.977 | 0.864 | 0.96 | 0.558 | 0.538 | 0.525 | 0.525 | 0.469
7 | NCI-H23 | 0.543 | 0.52 | 0.501 | 0.424 | 0.398 | 0.847 | 0.825 | 0.808 | 0.772 | 0.718 | 0.561 | 0.469 | 0.482 | 0.486 | 0.448 | 0.327 | 0.314 | 0.278 | 0.317 | 0.309
8 | EMC-BAC-2 | 0.516 | 0.531 | 0.544 | 0.529 | 0.496 | 0.502 | 0.512 | 0.563 | 0.462 | 0.476 | 0.539 | 0.531 | 0.551 | 0.498 | 0.519 | 0.968 | 0.924 | 0.98 | 0.901 | 1.02
